{"source": "patent US6921665B2", "about": "“Selective antibody targeting of undifferentiated stem cells” (Roslin Institute (Edinburgh), priority 2001, dated 2005)", "molecules": {"B1": {"name": "BDNF: brain derived neurotrophic factor, member of the neurotrophin growth factor family (protein, UniProt P23560 19-247, looked up)", "Neurotrophic factor BDNF …": "APMKEANIRGQGGLAYPGVRTHGTLESVNGPKAGSRGLTSLADTFEHVIEELLDEDQKVRPNEENNKDADLYTSRVMLSSQVPLEPPLLFLLEEYKNYLDAANMSMRVRRHSDPARRGELSVCDSISEWVTAADKKTAVDMSGGTVTVLEKVPVSKGQLKQYFYETKCNPMGYTKEGCRGIDKRHWNSQCRTTQSYVRALTMDSKKRIGWRFIRIDTSCVCTLTIKRGR"}, "B2": {"name": "neurotrophin-3: member of the neurotrophin growth factor family (protein, UniProt P20783 139-257, looked up)", "Neurotrophin-3": "YAEHKSHRGEYSVCDSESLWVTDKSSAIDIRGHQVTVLGEIKTGNSPVKQYFYETRCKEARPVKNGCRGIDDKHWNSQCKTSQTYVRALTSENNKLVGWRWIRIDTSCVCALSRKIGRT"}}, "key": {"[1]": {"tested_on": "H9 cell line", "assay": "Sensitivity of the H9 line to GCV after TPAC vector treatment", "type": "cell-based, human", "conditions": "subsequent studies", "from_the_text": "Thus, different hES cell lines respond to the TPAC vector."}, "[2]": {"tested_on": "tumor lines 143B, 293, HT1080, Bxpc-3', DAOY and NIH3T3", "assay": "Ganciclovir treatment in vitro of tk/+ tumor lines carrying hTERT promoter/tk constructs", "type": "cell-based", "conditions": "cells carrying pGRN266, pGRN267 or pGRN268", "protocol": "(§1) The ability of the hTERT promoter to specifically drive the expression of the thymidine kinase (tk) gene in tumor cells was tested using a variety of constructs: One construct, designated pGRN266, contains an EcoRI-FseI PCR fragment with the tk gene cloned into the EcoRI-FseI sites of pGRN263. pGRN263, containing approximately 2.5 kb of hTERT promoter sequence, is similar to pGRN150, but contains a neomycin gene as selection marker. pGRN267 contains an EcoRI-FseI PCR fragment with the tk gene cloned into the EcoRI-FseI sites of pGRN264. pGRN264, containing approximately 210 bp of hTERT promoter sequence, is similar to pGRN176, but contains a neomycin gene as selection marker. pGRN268 contains an EcoRI-XbaI PCR fragment with the tk gene cloned into the EcoRI-XbaI (unmethylated) sites of pGRN265. pGRN265, containing approximately 90 bp of hTERT promoter sequence, is similar to pGRN175, but contains a neomycin gene as selection marker.\n(§2) These hTERT promoter/tk constructs, pGRN266, pGRN267 and pGRN268, were re-introduced into mammalian cells and tk/+stable clones (and/or mass populations) were selected. […] Ganciclovir treatment had no effect on normal BJ cells."}, "[3]": {"tested_on": "Undifferentiated H1 cells", "assay": "Total cell number of undifferentiated H1 hES cells by flow cytometry after TPAC vector and/or GCV", "type": "cell-based, human", "conditions": "GCV alone, 30 μM", "protocol": "(§3) Undifferentiated H1 cells were plated into 24 well plates (1 confluent well of a 6 well plate split into 24 wells of a 24 well plate). After 48 h, some wells were infected with the TPAC vector at an MOI of 30 or 100. Four h after addition of the viral vector, medium was exchanged for new mouse embryonic fibroblast conditioned medium (mEF-CM); some wells received medium supplemented with 30 μM ganciclovir (GCV). Cells exposed to GCV were re-fed with mEF-CM containing 30 μM GCV daily for 4 days. On days 2,3, and 4 after the initiation of GCV treatment, wells were harvested and analyzed by flow cytometry to assess changes in 1) total cell number and 2) cell viability (measured by PI exclusion)."}, "[4]": {"tested_on": "TPAC vector treated hES cells", "assay": "Titration of GCV in TPAC vector treated hES cells", "type": "cell-based, human", "conditions": "pGRN376 MOI 30; GCV 5-40 μM tested; day 2", "protocol": "Undifferentiated Hi cells were plated into 24 well plates (1 confluent well of a 6 well plate split into 24 wells of a 24 well plate). After 48 h, some wells were infected with pGRN376 at an MOI of 30. Four h after addition of the viral vector, medium was exchanged for new mEF-CM; some wells received medium supplemented with 5, 10, 20, 30, or 40 μM ganciclovir (GCV). Cells exposed to GCV were re-fed with mEF-CM containing GCV daily for 2 days. On day 2 after the initiation of GCV treatment, wells were harvested and analyzed by flow cytometry to assess changes in total cell number, and cell viability (measured by PI exclusion)."}, "[5]": {"tested_on": "hES lines H1 and H7", "assay": "Comparison of different hES lines, total cell number after pGRN376 plus GCV", "type": "cell-based, human", "conditions": "two hES lines", "protocol": "Undifferentiated hES of lines designated Hi and H7 cells were plated into 24 well plates (1 confluent well of a 6 well plate split into 24 wells of a 24 well plate). […] Four h after addition of the viral vector, medium was exchanged for new mEF-CM; some wells received medium supplemented with 20 μM GCV. Cells exposed to GCV were re-fed with mEF-CM containing GCV daily for 3 days. On day 4 after the initiation of GCV treatment, wells were harvested and analyzed by flow cytometry to assess changes in total cell number."}, "[6]": {"tested_on": "Undifferentiated H1 cells", "assay": "Cell viability (PI exclusion, cells in ES gate) of H1 hES cells after TPAC vector and/or GCV", "type": "cell-based, human", "conditions": "GCV alone", "protocol": "as §3"}, "[7]": {"tested_on": "normal BJ cells", "assay": "Ganciclovir treatment in vitro of normal cells carrying hTERT promoter/tk constructs", "type": "cell-based", "protocol": "as §1, §2"}, "[8]": {"tested_on": "hTERT expression", "assay": "RT-PCR for hTERT expression after differentiation factors", "type": "cell-based, human", "conditions": "after exposure of hES cells to the factor", "protocol": "For radioactive relative quantification of individual gene products, QuantumRNA™ Alternate18S Internal Standard primers (Ambion, Austin Tex., USA) were employed according to the manufacturer's instructions. Briefly, the linear range of amplification of a particular primer pair was determined, then coamplified with the appropriate mixture of alternate18S primers:competimers to yield PCR products with coinciding linear ranges. Before addition of AmpliTaq™ (Roche) to PCR reactions, the enzyme was pre-incubated with the TaqStar™ antibody (ProMega) according to manufacturer's instructions. Radioactive PCR reactions were analyzed on 5% non-denaturing polyacrylamide gels, dried, and exposed to phosphoimage screens (Molecular Dynamics) for 1 hour. Screens were scanned with a Molecular Dynamics Storm 860 and band intensities were quantified using ImageQuant™ software. Results are expressed as the ratio of radioactivity incorporated into the hTERT or OCT-4 band, standardized to the radioactivity incorporated into the 18s band.\nPrimers and amplification conditions for particular markers are as follows. […]"}, "[9]": {"tested_on": "hES cells", "assay": "Neuron formation from hES cells with neurotrophin growth factors (β-tubulin positive cell count)", "type": "cell-based, human", "conditions": "7 days of differentiation", "protocol": "The effect of several members of the neurotrophin growth factor family was examined. hES cells were differentiated by harvesting with collagenase, dissociating, and reseeding onto poly-ornithine coated cover slips. The cells were plated into DMEM/F12+N2+10% FBS overnight. The following day, the serum was removed from the medium and replaced with 10 ng/mL human bFGF and the growth factor being tested. After 24 hours, bFGF was removed from the medium. These cultures were fed every other day. They were fixed after 7 days of differentiation and immunostained for analysis. The number of neurons was evaluated by counting cells positive for β-tubulin. Cultures maintained in the presence of 10 ng/mL brain derived neurotrophic factor (BDNF) formed approximately 3-fold more neurons than the control cultures. Cultures maintained in neurotrophin-3 (1 ng/mL) formed approximately 2-fold more neurons than control cultures."}}, "data": [{"molecule": "Nc1nc(O)c2ncn(COC(CO)CO)c2n1", "note": "[GCV, ganciclovir]", "values": [{"measurement": "sensitivity to GCV after TPAC vector treatment", "setting": "[1]", "value": "highly sensitive"}, {"measurement": "effect of ganciclovir on tk/+ cells", "setting": "[2]", "value": "selective destruction of all tumor lines tested"}, {"measurement": "cells as percent of the control wells", "setting": "[3]; day 2", "value": "approximately 55%"}, {"measurement": "cells as percent of the control wells", "setting": "[3]; day 4", "value": 40, "unit": "%"}, {"measurement": "optimal GCV concentration", "setting": "[4]", "value": "~20", "unit": "µM"}, {"measurement": "sensitivity to GCV after treatment with the TPAC vector", "setting": "[5]", "value": "sensitive"}, {"measurement": "cells in ES gate", "setting": "[6]; day 2 (control 85%)", "value": 75, "unit": "%"}, {"measurement": "cells in ES gate", "setting": "[6]; day 3 (control 82%)", "value": 68, "unit": "%"}, {"measurement": "cells in ES gate", "setting": "[6]; day 4 (control 65%)", "value": 50, "unit": "%"}, {"measurement": "effect of ganciclovir", "setting": "[7]", "value": "no effect"}]}, {"molecule": "C[S+](C)[O-]", "note": "[dimethyl sulfoxide]", "values": [{"measurement": "expression of hTERT", "setting": "[8]", "value": "markedly decreased"}]}, {"molecule": "B1", "values": [{"measurement": "neurons formed relative to control cultures", "setting": "[9]; 10 ng/mL", "value": "approximately 3 fold"}]}, {"molecule": "B2", "values": [{"measurement": "neurons formed relative to control cultures", "setting": "[9]; 1 ng/mL", "value": "approximately 2 fold"}]}]}
